Publication PMC3463587, “A Series of Beta-Carboline Derivatives Inhibit the Kinase Activity of PLKs” (PLoS ONE, 2012)

What was measured:
PC3 cells = experiment: MTT cell proliferation assay, PC3; assay type: cell-based; conditions: Homo sapiens, PC-3, 48 hr
From the text: (§1) BI2536 was purchased from Selleck (Selleck, USA).

HeLa cells [1] = experiment: FACS cell cycle analysis (PI), HeLa; assay type: cell-based, human
Method: It is well documented that PLK1 is involved in multiple steps in mitosis, such as centrosome maturation and establishment of bipolar spindle. […] Therefore, the down-regulation of PLK1 would change the distribution of cells in different cell cycle stages. To test this possibility, fluorescence-activated cell sorter (FACS) analysis was used to analyze the DNA content of HeLa cells treated with the identified PLK1 inhibitors, DH281, DH285, and DH287. HeLa cells were first incubated in the absence and presence of these compounds at different concentrations (0, 0.12, 0.48 and 1.92 µM) for 48 hr. […] Treatment with a lower concentration of the compounds (0.12 and 0.48 µM) also led to an obvious increase of the cell population in G2/M phase (Figure 4A, Table 3). Moreover, the proportion of HeLa cells in G2/M phase increased over time after incubation in the presence of 0.8 µM of DH281, DH285 and DH287 (Figure 4B, Table 4). […] We also determined the cell cycle distribution of the non-cancer MRC5 cells after treatment with DH281 at different concentrations. […] It is also possible that inhibition of the kinase activity of the whole PLK family by beta-carboline compounds results in the defect in cell cycle progression.
[…] The floated and attached cells were treated by trypsinization and washed with cold PBS. The cells were then fixed with 70% (v/v) ethanol at 4°C overnight. The fixed cells were washed twice with PBS and incubated with 50 µg/mL RNase A (Sigma, USA) and 50 µg/mL propidium iodide (PI) (Sigma, USA) at 37°C for 30 min.

MRC5 cells = experiment: cells; conditions: Homo sapiens, MRC5, 48 h, read-out: IC50 MRC5, MTT, 48 hr, non-cancer cells
Method: All the beta-carboline derivatives were provided by Xinjiang Huashidan Pharmaceutical Co. Ltd. The culture media and fetal bovine serum (FBS) were purchased from Hyclone (Hyclone Laboratories Inc., USA). […] All the cell lines were obtained from the Cell Culture Centre, Institute of Basic Medical Science, Chinese Academy of Medical Science and incubated at 37°C supplied with 5% CO2. HeLa cells were grown in standard DMEM with 10% FBS.
MRC5, HeLa, HepG2, PC3 and MG63 cells were seeded at 3000–6000 cells/well (200 µl/well) in a 96-well plate and incubated overnight. Then different concentrations of compounds were added into the cell cultures with a final concentration of 0.1% DMSO and incubated for an additional 48 hr. After that, 22 µl MTT solution (5 mg/ml) was added into each well and incubated at 37°C for 4 hr.

[2] = system: cyclin B1 protein in HeLa cells; experiment: Cyclin B1 protein level (Western blotting, FACS); assay type: cell-based, human; conditions: 1.21 µM, 24 hr
Method: As the inhibitory kinase for cyclin-dependent kinase (CDK), Wee1 is one of the substrates of PLK1 and this phosphorylation stimulates Wee1 degradation. We expect that the inhibition of PLK1 impairs the phosphorylation of Wee1, thereby resulting in elevated Wee1 protein levels. To test this possibility, we examined the protein levels of Wee1 in HeLa cells after treatment with 1.21 µM beta-carboline compounds for 24 hr. […] PLK1 also phosphorylates cyclin B1 and this phosphorylation promotes the nuclear localization of cyclin B1 [36]. After treatment with these beta-carboline compounds, a slight increase of cyclin B1 protein was observed (Figure 6B), and this increase could be a consequence of accumulation of cells in G2/M phase. However, the change of cyclin B1 levels is much less significant compared to the increase of Wee1 levels after treatment with these compounds.
HeLa cells were incubated with or without 1.21 µM DH281, DH285 and DH287 for 24 hr. The cells were washed twice with cold 1×PBS and lysed in RAPI buffer (Applygen technologies Inc.) for 30 min and centrifuged at 14,000 rpm for 20 min at 4°C. We separated 15 µl of total protein (1 µg/ µl) with 12% SDS-PAGE gels and transferred the proteins to PVDF membrane. […] The protein bands were detected using ECL System (Piscataway, New Jersey, USA). […]

HeLa cells [3] = experiment: Immunofluorescence of spindle (anti-α-tubulin); assay type: cell-based, human; conditions: 1.21 µM, 24 hr
From the text: PLK1 plays a pivotal role in centrosome maturation and spindle formation during mitosis. Thus, the down-regulation of PLK1 activity would prevent centrosome maturation as well as the formation of a bipolar spindle. Anti-α-tubulin antibody was used for immunofluorescence staining in order to examine the spindle structure in cells treated with the beta-carboline compounds.
HeLa cells were collected and then grown onto cover-slips. […] After washed with washing buffer (Beyotime, P0106) for 3 times, the cells were incubated with blocking buffer (Beyotime, P0102) for 60 min. The primary antibody anti-α-tubulin (Abcam) was used at 1∶200 dilutions; H&L (Cy5)-labeled secondary antibody was used at 1∶200 dilutions. The cover-slips were then mounted with PBS:glycerol (1∶1) mounting medium containing DAPI and examined under an inverted confocal microscope. Images were analyzed by the 3D image software Volocity (Improvision).

CDK1/cyclinB(h) = CDK1/cyclinB(h) (Homo sapiens, UniProt P06493); experiment: In vitro kinase assay CDK1/cyclinB (33P-ATP); assay type: biochemical
Method: The inhibition of PLK1 kinase activity was assessed using the Cyclex PLK1 Assay/Inhibitor Screening Kit (MBL International Corporation, Japan). The kit includes anti-phospho-threonine polyclonal antibody (PPT-07) and peroxidase coupled anti-rabbit IgG antibody as a reporter in a 96-well ELSIA format. Compounds were used at the concentrations from 10^− ^3 to 10^2 µg/ml and the absorbance was determined at 450 nm. A similar protocol was used to determine the kinase inhibition for PLK2, PLK3, Aurora A and Aurora B. The kinase activity of CDK1/cyclinB and CDK2/cyclinE was analyzed in the presence of serially diluted inhibitors. For each reaction, 20 ng of recombinant kinase was used and […] casein from bovine milk (Sigma) was added as the kinase substrate. The kinase reaction buffer contains 8 mM MOPS pH7.0, 0.2 mM EDTA, 0.1 mg/ml histone H1, 10 mM and MgAcetace and [γ^− ^33P-ATP] (500 cpm/pmol). The reaction was initiated by adding the MgATP mix. After incubation for 40 minutes at room temperature, the reaction was stopped by the addition of 3% phosphoric acid solution. We spotted 10 µl of the reaction mixture onto a P30 filtermat and washed three times for 5 min with 75 mM phosphoric acid and once with methanol prior to drying and scintillation counting.

HeLa cells [4] = experiment: MTT cell proliferation assay, HeLa; assay type: cell-based; conditions: Homo sapiens, 48 hr
From the text: as §1

CDK1/cyclinB(h), sequence (P06493 whole entry): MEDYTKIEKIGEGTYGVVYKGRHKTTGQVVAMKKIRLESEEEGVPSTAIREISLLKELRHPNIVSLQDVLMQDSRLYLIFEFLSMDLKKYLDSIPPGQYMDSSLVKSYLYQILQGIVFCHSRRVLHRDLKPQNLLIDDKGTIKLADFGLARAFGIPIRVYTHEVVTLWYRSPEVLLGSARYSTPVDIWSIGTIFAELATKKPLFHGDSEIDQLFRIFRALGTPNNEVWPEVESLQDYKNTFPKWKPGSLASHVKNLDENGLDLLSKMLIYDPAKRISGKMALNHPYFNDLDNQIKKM
CDK1/cyclinB(h), sequence (P14635 whole entry partner): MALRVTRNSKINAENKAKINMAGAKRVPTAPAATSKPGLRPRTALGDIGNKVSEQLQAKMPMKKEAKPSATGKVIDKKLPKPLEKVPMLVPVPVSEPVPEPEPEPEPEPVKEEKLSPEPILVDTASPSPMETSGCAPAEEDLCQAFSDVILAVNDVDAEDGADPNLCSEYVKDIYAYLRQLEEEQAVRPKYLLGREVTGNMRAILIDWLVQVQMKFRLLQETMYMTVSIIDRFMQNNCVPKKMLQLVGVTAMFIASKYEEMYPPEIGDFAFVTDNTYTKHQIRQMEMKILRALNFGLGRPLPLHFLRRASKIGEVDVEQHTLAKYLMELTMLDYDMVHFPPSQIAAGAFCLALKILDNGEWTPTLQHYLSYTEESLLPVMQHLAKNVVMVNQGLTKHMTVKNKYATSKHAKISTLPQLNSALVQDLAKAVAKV

Row | Compound | IC50 (PC3 cells) | cells in G1 (HeLa cells [1]; 0.12 µM, 48 hr) | cells in G2 (G2/M) (HeLa cells [1]; 0.12 µM, 48 hr) | cells in S (HeLa cells [1]; 0.12 µM, 48 hr) | cells in G1 (HeLa cells [1]; 0.48 µM, 48 hr) | cells in G2 (G2/M) (HeLa cells [1]; 0.48 µM, 48 hr) | cells in S (HeLa cells [1]; 0.48 µM, 48 hr) | cells in G1 (HeLa cells [1]; 0.8 µM, 24 hr) | cells in G2 (G2/M) (HeLa cells [1]; 0.8 µM, 24 hr) | cells in S (HeLa cells [1]; 0.8 µM, 24 hr) | cells in G1 (HeLa cells [1]; 0.8 µM, 36 hr) | cells in G2 (G2/M) (HeLa cells [1]; 0.8 µM, 36 hr) | cells in S (HeLa cells [1]; 0.8 µM, 36 hr) | cells in G1 (HeLa cells [1]; 0.8 µM, 48 hr) | cells in G2 (G2/M) (HeLa cells [1]; 0.8 µM, 48 hr) | cells in S (HeLa cells [1]; 0.8 µM, 48 hr) | cells in G1 (HeLa cells [1]; 0.8 µM, 60 hr) | cells in G2 (G2/M) (HeLa cells [1]; 0.8 µM, 60 hr) | cells in S (HeLa cells [1]; 0.8 µM, 60 hr) | cells in G1 (HeLa cells [1]; 1.92 µM, 48 hr) | also measured
1 | Cc1c2c(cc[n+]1Cc1ccccc1)c1ccc(OCc3ccc(F)cc3)cc1n2CCCc1ccccc1 [DH281] | 940 ± 230 nM | 70.5% | 10.1% | 19.4% | 55.3% | 14.4% | 30.3% | 64.1% | 10.2% | 25.7% | 53.4% | 18.9% | 27.7% | 42.4% | 16.6% | 41.1% | 33.9% | 14.6% | 51.6% | 38.4% | cells in G2 (G2/M) (HeLa cells [1]; 1.92 µM, 48 hr): 26.7%; cells in S (HeLa cells [1]; 1.92 µM, 48 hr): 34.9%; IC50 (MRC5 cells): 4730 ± 510 nM; cyclin B1 protein level [2]: did not show a significant increase of cyclin B1 protein; spindle structure (HeLa cells [3]): induced formation of monopolar spindles; IC50 (CDK1/cyclinB(h)): 42100 nM; IC50 (HeLa cells [4]): 510 ± 80 nM
2 | Cc1c2c(cc[n+]1Cc1ccccc1)c1ccc(OCc3ccccc3)cc1n2Cc1ccccc1 [DH287] | 2860 ± 190 nM | 77.3% | 6.86% | 15.9% | 64.8% | 14.2% | 21.0% | 64.5% | 10.2% | 25.3% | 54.6% | 15.9% | 29.5% | 49.3% | 13.0% | 37.8% | 30.6% | 16.6% | 52.8% | 51.9% | cells in G2 (G2/M) (HeLa cells [1]; 1.92 µM, 48 hr): 21.0%; IC50 (MRC5 cells): 3030 nM; cyclin B1 protein level [2]: did not show a significant increase of cyclin B1 protein; spindle structure (HeLa cells [3]): induced formation of monopolar spindles; IC50 (CDK1/cyclinB(h)): 39400 nM; IC50 (HeLa cells [4]): 1820 ± 150 nM
